Test system: VERO cells
Experiment: VERO cell growth in basal medium with non-animal supplements (mean cell count over subcultures, RGE)
Assay type: cell-based
Method: No attachment factors or coating of the plastic surface are required for the culture of VERO cells. At 3 to 4 days the cells were removed using standard cell culture techniques. The surface of the culture was first washed with Dulbecco's Phosphate Buffered Saline (DPBS) and then 1.0 ml Trypsin-EDTA (Life Technologies, Inc., Rockville, Md.) was added. The digest was allowed to sit on the cell surface for 3 to 5 minutes or until the cells rounded up and began to detach from the surface of the flask. The cells were completely detached by vigorous agitation against the palm of the hand and then 1.5 ml of soybean trypsin inhibitor was added to quickly neutralize enzymatic activity. The cells were counted under the microscope using trypan blue straining solution and new cultures plated at 2.5×10^3 cells per 25 cm^2 flask. Incubation was at 37° C. in 5% CO^2 in air. The cultures were passaged for a total of 4 subcultures and the mean cells per subculture determined from the counts of the final 3 subcultures (P2+P3+P4[…]). Initial studies were designed to formulate a culture medium completely devoid of animal proteins that supports the culture of animal cells. To this end, enzymatic hydrolysates of a variety of non-animal sources were examined as supplements in the basal medium described in Example 1. Hydrolysates of wheat gluten (HYPEP 4301 I, designated below us “Wheat Hydrolysate 1”, and HYPEP 8382, designated below as “Wheat Hydrolysate 2”). soy (HY—SOY) and rice (HYPEP 5115), as well as an extract of baker's yeast (HY-YEST 444) were obtained from Quest International (Norwich, N.Y.) and were formulated into the basal medium of Example 1 at 200 mg/liter. […] To more closely examine their efficacy as supplements for the present media, rice hydrolysates were supplemented into basal media at differing concentrations. These media were then used to examine VERO cell growth as described above. Cell counts were compared to those obtained in basal medium that was unsupplemented (negative control) or to Earle's Modified Eagle's Medium (EMEM) supplemented with 5% fetal bovine serum (FBS; positive control). […] To examine additional sources of non-animal peptides and vitamins as supplements for the present media, extracts of yeast, soy and potato were obtained from Quest International (Norwich, N.Y.) and were supplemented into basal media at differing concentrations. Yeast extract (YE) was also examined as a co-supplement with rice hydrolysate. These media were then used to examine VERO cell growth as described above. Cell counts were compared to those obtained with EMEM supplemented with 5% FBS. […] RGE was calculated as described in Example 2. To more closely examine the use of yeast extract as a supplement in the present media, preparations of YE or an ultrafiltrate of YE (“YEU”) were supplemented into basal media in the presence or absence of 100 mg/liter of rice hydrolysate. These media were then used to examine VERO cell growth as described above. Cell counts were compared to those obtained in EMEM supplemented with 5% FBS (positive control). […] RGE was calculated as described in Example 2. […] These media were then used to examine VERO cell growth as described above. Cell counts were compared to those obtained in basal medium that was unsupplemented (negative control) or to EMEM supplemented with 5% FBS (positive control). […] RGE was calculated as described in Example 2. […] The results in this table represent the mean cells per 25 cm^2 flask in duplicate over 4 subcultures.

## EGF: recombinant human EGF (epidermal growth factor)
Table 6, 0.5 mg/L in basal medium
  Mean Cell Count: 8.0 × 10^5
Table 6, 0.5 mg/L, relative to 5% FBS control
  RGE: 34
Table 6, 1 mg/L in basal medium
  Mean Cell Count: 11.4 × 10^5
Table 6, 1 mg/L, relative to 5% FBS control
  RGE: 49
Table 6, 5 mg/L, relative to 5% FBS control
  RGE: 51
Table 6, 10 mg/L in basal medium
  Mean Cell Count: 22.6 × 10^5
Table 7, 5 mg/L
  Mean Cell Count: 20.2 × 10^5
Table 7, 5 mg/L, relative to 5% FBS control
  RGE: 76
Table 7, 6 mg/L
  Mean Cell Count: 19.3 × 10^5
Table 7, 6 mg/L, relative to 5% FBS control
  RGE: 73
Table 7, 7 mg/L
  Mean Cell Count: 19.6 × 10^5
Table 7, 7 mg/L, relative to 5% FBS control
  RGE: 74
Table 7, 8 mg/1.
  Mean Cell Count: 21.0 × 10^5
Table 7, 8 mg/1., relative to 5% FBS control
  RGE: 79
Table 7, 9 mg/L
  Mean Cell Count: 20.7 × 10^5
Table 7, 9 mg/L, relative to 5% FBS control
  RGE: 78
Table 7, 10 mg/L
  Mean Cell Count: 19.5 × 10^5
Table 7, 10 mg/L, relative to 5% FBS control
  RGE: 73
Table 8, 5 mg/L, as % of 0 mg/L control
  RGE: 137%
Table 8, 5 mg/L, mean cells per 25 cm^2 flask in duplicate over 4 subcultures
  Mean Cell Count: 7.0 × 10^5
Table 8, 6 mg/L, as % of 0 mg/L control
  RGE: 118%
Table 8, 6 mg/L, over 4 subcultures
  Mean Cell Count: 6.0 × 10^5
Table 8, 7 mg/L, as % of 0 mg/L control
  RGE: 139%
Table 8, 7 mg/L, over 4 subcultures
  Mean Cell Count: 7.1 × 10^5
Table 8, 8 mg/L, as % of 0 mg/L control
  RGE: 143%
Table 8, 8 mg/L, over 4 subcultures
  Mean Cell Count: 7.3 × 10^5
Table 8, 9 mg/L, as % of 0 mg/L control
  RGE: 145%
Table 8, 9 mg/L, over 4 subcultures
  Mean Cell Count: 7.4 × 10^5
Table 8, 10 mg/L, as % of 0 mg/L control
  RGE: 133%
Table 8, 10 mg/L, over 4 subcultures
  Mean Cell Count: 6.8 × 10^5
